pEC50: −log10 of the molar value.
Each compound was assayed on HCV 1b-Con-1 replicon (assay: HCV 1b-Con-1 replicon assay (luciferase reporter gene, HuH-7 cells)). Conditions: Hepatitis C virus, Huh-7, luciferase reporter gene activity in the replicon, in the presence of 5% FBS.
Type: cell-based, Hepatitis C virus (HCV) genotype 1b-Con1
Work on `O=C(Nc1ccc(CN(Cc2ccc(NC(=O)[C@@H]3CCCN3C(=O)[C@@H](c3ccccc3)N3CCCC3)cc2)c2ccc(F)cc2)cc1)[C@@H]1CCCN1C(=O)[C@@H](c1ccccc1)N1CCCC1` [Example 85, (2S,2′S)-N,N′-{[(4-fluorophenyl)imino]bis(methanediylbenzene-4,1-diyl)}bis{1-[(2R)-2-phenyl-2-pyrrolidin-1-ylacetyl]pyrrolidine-2-carboxamide}] yielded a pEC50 greater than 9.00.
`CCN(C(C)=O)[C@@H](C(=O)N1CCC[C@H]1C(=O)Nc1ccc(CN(Cc2ccc(NC(=O)[C@@H]3CCCN3C(=O)[C@@H](c3ccccc3)N(CC)C(C)=O)cc2)c2ccc(F)cc2)cc1)c1ccccc1` [Example 122, (2S,2′S)-N,N′-{[(4-fluorophenyl)imino]bis(methanediylbenzene-4,1-diyl)}bis(1-{(2R)-2-[acetyl(ethyl)amino]-2-phenylacetyl}pyrrolidine-2-carboxamide)] gave a pEC50 of 7.00 to 8.00.
Work on `CC(=O)N[C@@H](C(=O)N1CCC[C@H]1C(=O)Nc1ccc(CN(Cc2ccc(NC(=O)[C@@H]3CCCN3C(=O)[C@H](NC(C)=O)c3ccccc3)cc2)c2ccccc2)cc1)c1ccccc1` [Example 43, (2S,2′S)-N,N′-[(phenylimino)bis(methanediylbenzene-4,1-diyl)]bis{1-[(2R)-2-(acetylamino)-2-phenylacetyl]pyrrolidine-2-carboxamide}] yielded a pEC50 greater than 9.00.
Work on `COC(=O)N[C@H](C(=O)N1CCC[C@H]1C(=O)Nc1cc(CN(Cc2ccc(OC)c(NC(=O)[C@@H]3CCCN3C(=O)[C@@H](NC(=O)OC)C(C)(C)C)c2)c2ccc(F)cc2)ccc1OC)C(C)(C)C` [Example 147, dimethyl ([(4-fluorophenyl)imino]bis{methanediyl(6-methoxybenzene-3,1-diyl)carbamoyl(2S)pyrrolidine-2,1-diyl[(2S)-3,3-dimethyl-1-oxobutane-1,2-diyl]})biscarbamate] yielded a pEC50 of 6.60 to 7.00.
`CCN(CC)[C@@H](C(=O)N1CCC[C@H]1C(=O)Nc1ccc(CN(Cc2ccc(NC(=O)[C@@H]3CCCN3C(=O)[C@H](NC(=O)OC)c3ccccc3)cc2)c2ccccc2)cc1)c1ccccc1` [Example 75, methyl [(1R)-2-{(2S)-2-[(4-{[{-4-[({(2S)-1-[(2R)-2-(diethylamino)-2-phenylacetyl]pyrrolidin-2-yl}carbonyl)amino]benzyl}(phenyl)amino]methyl}phenyl)carbamoyl]pyrrolidin-1-yl}-2-oxo-1-phenylethyl]carbamate] gave a pEC50 greater than 9.00.
`COC(=O)N[C@@H](CCO)C(=O)N1CCC[C@H]1C(=O)Nc1ccc(CN(Cc2ccc(NC(=O)[C@@H]3CCCN3C(=O)[C@H](CCO)NC(=O)OC)cc2)c2ccc(F)cc2)cc1` [Example 134, dimethyl ([(4-fluorophenyl)imino]bis{methanediylbenzene-4,1-diylcarbamoyl(2S)pyrrolidine-2,1-diyl[(2S)-4-hydroxy-1-oxobutane-1,2-diyl]})biscarbamate] showed a pEC50 of 8.00 to 9.00.
`COC(=O)N[C@H](C(=O)N1CCC[C@H]1C(=O)Nc1ccc(CN(Cc2ccc(NC(=O)[C@@H]3CCCN3C(=O)[C@@H](NC(=O)OC)C(C)C)cc2)C(C)C)cc1)C(C)C` [Example 24, dimethyl ([(1-methylethyl)imino]bis{methanediylbenzene-4,1-diylcarbamoyl(2S)pyrrolidine-2,1-diyl[(2S)-3-methyl-1-oxobutane-1,2-diyl]})biscarbamate] was tested, and the pEC50 was 8.00 to 9.00.
In the case of `COC(=O)N[C@H](C(=O)N1CCC[C@H]1C(=O)Nc1ccc(CN(Cc2ccc(NC(=O)[C@@H]3CCCN3C(=O)[C@@H](NC(=O)OC)[C@H](C)O)cc2)c2ccccc2)cc1)[C@H](C)O` [Example 49, dimethyl [(phenylimino)bis{methanediylbenzene-4,1-diylcarbamoyl(2S)pyrrolidine-2,1-diyl[(2S,3S)-3-hydroxy-1-oxobutane-1,2-diyl]}]biscarbamate], the pEC50 was 8.00 to 9.00.
`CC(=O)O[C@H](C(=O)N1CCC[C@H]1C(=O)Nc1ccc(CN(Cc2ccc(NC(=O)[C@@H]3CCCN3C(=O)[C@H](OC(C)=O)c3ccccc3)cc2)c2ccc(F)cc2)cc1)c1ccccc1` [Example 113, [(4-fluorophenyl)imino]bis[methanediylbenzene-4,1-diylcarbamoyl(2S)pyrrolidine-2,1-diyl(1R)-2-oxo-1-phenylethane-2,1-diyl]diacetate] was tested, and the pEC50 was greater than 9.00.
With `COC(=O)N[C@H](C(=O)N1CCC[C@H]1c1nc2cc(CN(Cc3ccc4oc([C@@H]5CCCN5C(=O)[C@@H](NC(=O)OC)C(C)C)nc4c3)c3ccccc3)ccc2o1)C(C)C` [Example 148, methyl [(1S)-1-{[(2S)-2-(5-{[({2-[(2S)-1-{(2S)-2-[(methoxycarbonyl)amino]-3-methylbutanoyl}pyrrolidin-2-yl]-1,3-benzoxazol-5-yl}methyl)(phenyl)amino]methyl}-1,3-benzoxazol-2-yl)pyrrolidin-1-yl]carbonyl}-2-methylpropyl]carbamate] the pEC50 was 6.60 to 7.00.
`COC(=O)N[C@@H](C(=O)N1CCC[C@H]1C(=O)Nc1ccc(CN(Cc2ccc(NC(=O)[C@@H]3CCCN3C(=O)[C@H](NC(=O)OC)c3ccccc3)cc2)c2ccccc2)cc1)c1ccccc1` [Example 3] showed a pEC50 greater than 9.00.
In the case of `CC[C@H](NC(=O)OC)C(=O)N1CCC[C@H]1C(=O)Nc1ccc(CN(Cc2ccc(NC(=O)[C@@H]3CCCN3C(=O)[C@@H](c3ccccc3)N3CCCCC3)cc2)c2ccc(F)cc2)cc1` [Example 115, methyl [(1S)-1-({(2S)-2-[(4-{[(4-fluorophenyl){4-[({(2S)-1-[(2R)-2-phenyl-2-piperidin-1-ylacetyl]pyrrolidin-2-yl}carbonyl)amino]benzyl}amino]methyl}phenyl)carbamoyl]pyrrolidin-1-yl}carbonyl)propyl]carbamate], the pEC50 was greater than 9.00.
In the case of `COC(=O)N[C@H](C(=O)N1CCC[C@H]1C(=O)Nc1ccc(CN(Cc2ccc(NC(=O)[C@@H]3CCCN3C(=O)[C@@H](NC(=O)OC)[C@H]3CCOC3)cc2)c2ccccc2)cc1)[C@H]1CCOC1` [Example 39, dimethyl {(phenylimino)bis[methanediylbenzene-4,1-diylcarbamoyl(2S)pyrrolidine-2,1-diyl{(1S)-2-oxo-1-[(3R)-tetrahydrofuran-3-yl]ethane-2,1-diyl}]}biscarbamate], the pEC50 was greater than 9.00.
Work on `COC(=O)N[C@H](C(=O)N1CCC[C@H]1C(=O)Nc1ccc(CN(Cc2ccc(NC(=O)[C@@H]3CCCN3C(=O)[C@@H](c3ccccc3)N3CCOCC3)cc2)c2ccccc2)cc1)C(C)(C)C` [Example 58, N-(methoxycarbonyl)-3-methyl-L-valyl-N-[4-({[4-({1-[(2R)-2-morpholin-4-yl-2-phenylacetyl]-L-prolyl}amino)benzyl](phenyl)amino}methyl)phenyl]-L-prolinamide] yielded a pEC50 greater than 9.00.
With `COC(=O)N[C@H](C(=O)N1CCC[C@H]1C(=O)Nc1ccc(CN(Cc2ccc(NC(=O)[C@@H]3CCCN3C(=O)[C@H](NC(=O)[C@H]3CCCO3)c3ccccc3)cc2)c2ccccc2)cc1)C(C)(C)C` [Example 88, N-(methoxycarbonyl)-3-methyl-L-valyl-N-[4-({phenyl[4-({1-[(2R)-2-phenyl-2-{[(2R)-tetrahydrofuran-2-ylcarbonyl]amino}acetyl]-L-prolyl}amino)benzyl]amino}methyl)phenyl]-L-prolinamide] the pEC50 was greater than 9.00.
In the case of `COC(=O)N[C@H](C(=O)N1CCC[C@H]1C(=O)Nc1ccc(CN(Cc2ccc(NC(=O)[C@@H]3CCCN3C(=O)[C@@H](NC(=O)OC)[C@@H](C)OC)cc2)c2ccccc2)cc1)[C@@H](C)OC` [Example 51, dimethyl[(phenylimino)bis{methanediylbenzene-4,1-diylcarbamoyl(2S)pyrrolidine-2,1-diyl[(2S,3R)-3-methoxy-1-oxobutane-1,2-diyl]}]biscarbamate], the pEC50 was 8.00 to 9.00.
`COC(=O)N[C@H](C(=O)N1CSC(C)(C)[C@H]1C(=O)Nc1ccc(CN(Cc2ccc(NC(=O)[C@H]3N(C(=O)[C@@H](NC(=O)OC)C(C)(C)C)CSC3(C)C)cc2)c2ccccc2)cc1)C(C)(C)C` [Example 93, methyl [(1S)-1-{[(4R)-4-{[4-({[4-({[(4R)-3-{(2S)-2-[(methoxycarbonyl)amino]-3,3-dimethylbutanoyl}-5,5-dimethyl-1,3-thiazolidin-4-yl]carbonyl}amino)benzyl](phenyl)amino}methyl)phenyl]carbamoyl}-5,5-dimethyl-1,3-thiazolidin-3-yl]carbonyl}-2,2-dimethylpropyl]carbamate] was tested, and the pEC50 was 8.00 to 9.00.
Compound `O=C(Nc1ccc(CN(Cc2ccc(NC(=O)[C@@H]3CCCN3C(=O)[C@@H](c3ccccc3)N3CCCCC3)cc2)c2ccc(F)c(F)c2)cc1)[C@@H]1CCCN1C(=O)[C@@H](c1ccccc1)N1CCCCC1` [Example 137, (2S,2′S)-N,N′-{[(3,4-difluorophenyl)imino]bis(methanediylbenzene-4,1-diyl)}bis{1-[(2R)-2-phenyl-2-piperidin-1-ylacetyl]pyrrolidine-2-carboxamide}] has a pEC50 greater than 9.00.
`O=C([C@@H](c1ccccc1)N1CCCC1)N1CCC[C@H]1c1nc2cc(CN(Cc3ccc4[nH]c([C@@H]5CCCN5C(=O)[C@@H](c5ccccc5)N5CCCC5)nc4c3)c3ccccc3)ccc2[nH]1` [Example 66, N,N-bis[(2-{(2S)-1-[(2R)-2-phenyl-2-pyrrolidin-1-ylacetyl]pyrrolidin-2-yl}-1H-benzimidazol-5-yl)methyl]aniline] showed a pEC50 greater than 9.00.
Work on `COC(=O)N[C@H](C(=O)N1CC[C@H](C)[C@H]1C(=O)Nc1ccc(CN(Cc2ccc(NC(=O)[C@@H]3[C@@H](C)CCN3C(=O)[C@@H](NC(=O)OC)C(C)(C)C)cc2)c2ccc(F)cc2)cc1)C(C)(C)C` [Example 145] yielded a pEC50 greater than 9.00.
With `COC(=O)N[C@H](C(=O)N1CCC[C@H]1C(=O)Nc1ccc(CN(Cc2ccc(NC(=O)[C@@H]3CCCN3C(=O)[C@@H](NC(=O)OC)C(C)(C)C)cc2)C2CCCC2)cc1)C(C)(C)C` [Example 29, dimethyl[(cyclopentylimino)bis{methanediylbenzene-4,1-diylcarbamoyl(2S)pyrrolidine-2,1-diyl[(2S)-3,3-dimethyl-1-oxobutane-1,2-diyl]}]biscarbamate] the pEC50 was 6.60 to 7.00.

Reference: US9278922B2 (ABBVIE INC., priority 2009, dated 2016)
